{"source": "paper PMC5469522", "assay": "Non-covalent ring closure: intramolecular phenol OH...acceptor H-bond (folding of AD 2-mers; acceptor is phosphine oxide, pyridine or pyridine N-oxide). EMf = Kfold/K(A.D); Kfold inferred from NMR dilution Kobs(AD.AD) versus Kobs(AA.DD)", "conditions": "the molecule shown is the open-chain precursor, toluene-d8 (C7-PO in CDCl3), 25.0 °C", "data": [{"smiles": "CCCCP(=O)(CCCC)c1cccc(C#Cc2cc(C#Cc3cccc(O)c3)cc(OCC[C@@H](C)CCC=C(C)C)c2)c1", "note": "[C7-PO (44), CDCl3]", "values": [{"measurement": "ring closure, effective molarity", "setting": "17-membered ring", "value": 0, "unit": "mM"}]}, {"smiles": "CCCCC(CC)COc1ccc(N(Cc2ccc(O)cc2)Cc2cc([N+](=O)[O-])ccc2OCC(CC)CCCC)cc1CN(Cc1ccncc1)c1ccc(OCC(CC)CCCC)c(C2OCCO2)c1", "note": "(stereo not shown) [C8-N (21)]", "values": [{"measurement": "ring closure, effective molarity", "setting": "18-membered ring", "value": 0, "unit": "mM"}]}, {"smiles": "CCCCC(CC)COc1ccc(N(Cc2ccc(O)cc2)Cc2cc([N+](=O)[O-])ccc2OCC(CC)CCCC)cc1CN(Cc1cc[n+]([O-])cc1)c1ccc(OCC(CC)CCCC)c(C2OCCO2)c1", "note": "(stereo not shown) [C8-NO (13)]", "values": [{"measurement": "ring closure, effective molarity", "setting": "19-membered ring", "value": 0, "unit": "mM"}]}, {"smiles": "CCCCC(CC)COc1ccc(N(Cc2ccc(O)cc2)Cc2cc([N+](=O)[O-])ccc2OCC(CC)CCCC)cc1CN(Cc1ccc(OCP(=O)(C(C)(C)C)C(C)(C)C)cc1)c1ccc(OCC(CC)CCCC)c(C2OCCO2)c1", "note": "(stereo not shown) [C8-PO (16)]", "values": [{"measurement": "ring closure, effective molarity", "setting": "22-membered ring", "value": 7, "unit": "mM"}]}, {"smiles": "CCCCP(=O)(CCCC)c1ccc(C[C@@H](CCSCC[C@H](CCSC(C)=O)Cc2ccc(O)cc2)CCSC(C)(C)C)cc1", "note": "[C9-PO (33)]", "values": [{"measurement": "ring closure, effective molarity", "setting": "21-membered ring", "value": 7, "unit": "mM"}]}, {"smiles": "CCCCC(CC)COc1cc(CN(Cc2ccccc2OC)c2ccc(O)cc2)cc(CN(Cc2ccccc2OC)c2ccc(OCP(=O)(C(C)(C)C)C(C)(C)C)cc2)c1", "note": "(stereo not shown) [N7-PO (29)]", "values": [{"measurement": "ring closure, effective molarity", "setting": "21-membered ring", "value": 15, "unit": "mM"}]}, {"smiles": "CCCCC(CC)COc1cc(CN(Cc2ccccc2OC)c2ccc(OCP(=O)(C(C)(C)C)C(C)(C)C)cc2)c(OCC(CC)CCCC)cc1CN(Cc1ccccc1OC)c1ccc(O)cc1", "note": "(stereo not shown) [N8-PO (26)]", "values": [{"measurement": "ring closure, effective molarity", "setting": "22-membered ring", "value": 3, "unit": "mM"}]}]}
